Test results taken from patent US20120027807A1, “TISSUE ENGINEERED MYOCARDIUM AND METHODS OF PRODUCTION AND USES THEREOF” (THE GENERAL HOSPITAL CORPORATION, priority 2008, published 2012).

How the values were obtained:
[1] = system: gap junctions (e.g. Connexin 43); test: Heptanol wash-in / wash-out on muscular thin film; assay type: cell-based, mouse
Description: FIGS. 10A-10D show the tissue engineered myocardium on a muscular thin film derived from cardiac progenitor cells. […] All the heptanol was not washed-out resulting in the reduced contractility after cell-cell electrical coupling was restored.

[2] = system: R+G+ derived ventricular myocytes; assay type: cell-based, mouse

| SMILES | contractions after heptanol wash-out ([1]; partial wash-out) | coupling of cardiomyocytes by gap junctions ([1]; wash-in then wash-out of heptanol, MTF contractile force over time) | effect on the transmembrane action potential [2] |
| --- | --- | --- | --- |
| CCCCCCCO [heptanol] | partial washout restores contractions | reversibly blocked | – |
| NC1=N[C@H](O)[C@H]2[C@H]3O[C@]4(O)O[C@@H]([C@@H](O)[C@@]2(N1)[C@@H]4O)[C@]3(O)CO [TTX, tetrodotoxin] | – | – | ablated the action potential |
